Data on six molecules can be found in ChEMBL document CHEMBL1955740, “Structure-based virtual screening approach to the discovery of p38 MAP kinase inhibitors” (Bioorg Med Chem Lett, 2012).

A value given as a limit tells only on which side of the number the result lay.

Assay [1] addresses T1, Mitogen-activated protein kinase 14 (Homo sapiens, UniProt Q16539). Put plainly: Inhibition of MAPK p38alpha.
Assay [2] has as its target T1, Mitogen-activated protein kinase 14. Put plainly: Inhibition of MAPK p38alpha assessed as activity remaining at 50 uM relative to control.

T1 sequence (Q16539 whole entry): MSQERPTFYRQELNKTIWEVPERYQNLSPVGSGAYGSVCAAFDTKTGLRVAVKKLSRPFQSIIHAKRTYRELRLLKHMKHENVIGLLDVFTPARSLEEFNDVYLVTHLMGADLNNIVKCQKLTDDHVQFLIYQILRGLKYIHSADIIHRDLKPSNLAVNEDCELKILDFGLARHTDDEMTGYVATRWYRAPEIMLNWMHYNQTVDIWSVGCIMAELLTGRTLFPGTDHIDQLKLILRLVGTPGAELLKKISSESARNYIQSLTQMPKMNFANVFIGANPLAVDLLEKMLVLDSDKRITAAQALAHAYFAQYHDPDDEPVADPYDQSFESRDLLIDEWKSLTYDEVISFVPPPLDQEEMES

In the case of `CCn1cc(/C=C2/Oc3c(ccc(O)c3CN3CCOCC3)C2=O)c2ccccc21`, the IC50 – broadly, the concentration at which inhibition is half-maximal – in assay [1] is > 30 µM. Also, the Activity in assay [2] was 37%.

In assay [1], `Nc1nc(Nc2ccccc2)sc1C(=O)c1ccccc1` came in with an IC50 of 0.72 µM. Also, in assay [2], the Activity is 8.1%.

With `Cn1cc(/C=C2/C(=O)NC(=O)N(CCc3ccccc3)C2=O)c2ccccc21`, the IC50 in assay [1] worked out at 17.1 µM. Further, the Activity in assay [2] came out at 32%.

As to `NC(=O)c1ccc(Nc2nnc(-c3ccc(O)cc3)c3ccccc23)cc1`, the IC50 in assay [1] is > 30 µM. Besides, the Activity in assay [2] was 41%.

For the molecule `O=C1c2ccccc2C(=O)N1CCc1nc2c3c(-c4ccco4)c(-c4ccco4)oc3ncn2n1`, the IC50 in assay [1] was > 30 µM. The Activity in assay [2] came to 39%.

As to `Cc1cccc(-c2nc(Nc3ccc(C(=O)O)cc3)c3ccccc3n2)c1`, in assay [1], half-maximal inhibition (IC50) was put at 20.4 µM. Also, the Activity in assay [2] was 34%.
